The text below walks through data of EP1477169A1, “Reactions of polymorphs of N-methyl-N-(3-(3-(2-thienylcarbonyl)-pyrazol-(1,5-alpha)-pyrimidin-7-yl)phenyl)acetamide” (Neurocrine Biosciences, Inc., priority 1999, dated 2001).

Values after ≈ are worked out from the molar mass of the structure shown.

The nature of data set [1]: Physical (polymorphic) stability of the solid form. The following applies: in words, compared with the polymorphic mixture of Compound 1; stability toward conversion to a different polymorphic form. Format: physicochemical. From the text: The polymorph Form I is considered a heat stable form of Compound 1. By "heat stable" or ''physically stable" is meant that the Form I is stable toward conversion to the polymorph Form II; although, it may be labile toward degradation to other compounds.
As the higher melting point polymorph, Form I has significant advantages over the polymorphic mixture of Compound 1 prepared according to known techniques. […] This, in turn, enhances the milling and compaction properties of the drug substance.

The nature of data set [2]: Approximate solubility in various solvents. Format: physicochemical. The conditions noted are these: for Solubility: approximate. From the text:
In addition, the lower melting point polymorph, Form II, also has significant advantages over the polymorphic mixture of Compound 1 as prepared according to known techniques. […] Form II is generally more soluble in polar and protic solvents than is Form I. Enhanced solubility of a compound will generally increase the bioavailability of that compound. When absorption of a drug is dissolution rate limited, use of the more soluble and faster dissolving form improves the rate and extent of bioavailability.

For the molecule `CC(=O)N(C)c1cccc(-c2ccnc3c(C(=O)c4cccs4)cnn23)c1` [Form I, N-methyl-N-(3-{3-[2-thienylcarbonyl]-pyrazol-[1,5-α]-pyrimidin-7-yl}phenyl)acetamide], in data set [1], the physical stability result was “superior physical stability”. Moreover, the Solubility in data set [2] (Acetone) is 4.842 mg/mL (≈ 12.9 mM); in data set [2] (Acetonitrile), 6.246 mg/mL (≈ 16.6 mM); in data set [2] (De-ionized water) it was 0.0083 mg/mL (≈ 0.022 mM); in data set [2] (Diethyl ether) it was 0.08 mg/mL (≈ 0.213 mM); in data set [2] (Ethanol, absolute (100%)) it was 1.426 mg/mL (≈ 3.79 mM); in data set [2] (Ethyl acetate), 1.6 mg/mL (≈ 4.25 mM). Further, the Solubility in data set [2] (Hexane) worked out at 0.041 mg/mL (≈ 0.109 mM); in data set [2] (Isopropanol), 0.441 mg/mL (≈ 1.17 mM); in data set [2] (Methanol) it was 1.74 mg/mL (≈ 4.62 mM); in data set [2] (Polyethylene Glycol 400, NF) it was 3.259 mg/mL (≈ 8.66 mM); in data set [2] (Tetrahydrofuran) it was 9.964 mg/mL (≈ 26.5 mM); in data set [2] (Toluene) it was 0.997 mg/mL (≈ 2.65 mM).

Regarding `CC(=O)N(C)c1cccc(-c2ccnc3c(C(=O)c4cccs4)cnn23)c1` [Form II, N-methyl-N-(3-{3-[2-thienylcarbonyl]-pyrazol-[1,5-α]-pyrimidin-7-yl}phenyl)acetamide], the Solubility is 6.873 mg/mL (≈ 18.3 mM) in data set [2] (Acetone); 8.928 mg/mL (≈ 23.7 mM) in data set [2] (Acetonitrile); 0.0188 mg/mL (≈ 0.0499 mM) in data set [2] (De-ionized water); 0.051 mg/mL (≈ 0.135 mM) in data set [2] (Diethyl ether); 1.722 mg/mL (≈ 4.57 mM) in data set [2] (Ethanol, absolute (100%)); 2.16 mg/mL (≈ 5.74 mM) in data set [2] (Ethyl acetate). For the same molecule, the Solubility turned out to be 0.05 mg/mL (≈ 0.133 mM) in data set [2] (Hexane); 0.457 mg/mL (≈ 1.21 mM) in data set [2] (Isopropanol); 1.915 mg/mL (≈ 5.09 mM) in data set [2] (Methanol); 10.1 mg/mL (≈ 26.8 mM) in data set [2] (Polyethylene Glycol 400, NF); 14.74 mg/mL (≈ 39.2 mM) in data set [2] (Tetrahydrofuran); 0.645 mg/mL (≈ 1.71 mM) in data set [2] (Toluene). Further, the “solubility in a range of organic solvents” value in data set [2] (in words, compared with Form I) is reported as “generally greater solubility in a range of organic solvents as compared to Form I”. The water solubility entry in data set [2] (in words, compared with Form I) was “superior water solubility over Form I”.
